Experimental data from patent US20220381784A1, “SYSTEMS COMPRISING SUBSTRATES AND METHODS OF USING THE SAME FOR DETECTION OF PANCREATIC CANCERS” (THE REGENTS OF THE UNIVERSITY OF CALIFORNIA, priority 2019, published 2022).
Square brackets hold non-standard residues; d marks the D form. Peptide text beside a SMILES is read from it. * marks the point of attachment. Sta = CC(C)C[C@H](N)[C@@H](O)CC(=O)O; Isovaleryl = CC(C)CC(=O)*; CH2Cl = ClC*

How the values were obtained:
[1] = tested on: tri-amino peptidase activity in mucinous cyst fluid; test: MSP-MS assay of mucinous cyst fluid with protease inhibitors; type: biochemical, human; conditions: 2 μmol/L pepstatin; for effect on tri-amino peptidase activity (cleavage after third amino acid): pH 3.5, 10 μmol/L AAF-CMK
Procedure: The MSP-MS assay was performed as described previously (Ivry et al., 2017; O'Donoghue et al., 2012). Cyst fluid protein concentration was first determined through the BCA assay (Thermo Fisher, 23225). Cyst fluid samples were then diluted to 100 μg/mL in pH 3.5 acetate buffer or pH 7.5 phosphate buffer. The 228 tetradecapeptide was split into two pools of 114 peptides each and diluted to 1 μmol/L in either acetate or phosphate buffer. Equal volumes of diluted cyst fluid and peptide pools were combined and incubated at room temperature. After 15 and 60 minutes, 30 μL aliquots were removed and protease activity was quenched with 8 mol/L guanidinium hydrochloride. Aliquots were then desalted using C18 tips (Rainin). The following inhibitors were included in specified MSP-MS assays: 1 mmol/L AEBSF (Sigma, A8456), 2 mmol/L E64 (Sigma, E3132), 2 μmol/L pepstatin (Sigma, P5318), 2 mmol/L 1,10-phenanthroline (Sigma, 131337), and 10 μmol/L AAF-CMK (Enzo, BML-PI123).
Mass spectrometry analysis was performed with an LTQ Orbitrap XL Mass Spectrometer (Thermo Fisher) coupled to an Ultra Performance Liquid Chromatography (UPLC) System (Waters). Peptides were separated over a C18 column (Thermo Fisher, ES800) with a 65-minute linear gradient from 2%-30% acetonitrile. MS spectra were acquired over an m/z range of 325-1,500 and MS/MS spectra were obtained for the six most intense precursor ions by collision-induced dissociation (CID). Peak lists were generated using MSConvert and searched in Protein Prospector v. 5.10.0 against a database containing the sequences from the 228 tetradecapeptide library. Searches used a mass tolerance of 20 ppm for precursors and 0.8 Da for fragments. The following variable modifications were allowed: N-terminal pyroglutamate conversion from glutamine or glutamate and oxidation of tryptophan, proline, and tyrosine. Search outputs were then processed using the MSP-xtractor software (http://www.craiklab.ucsfedu/extractor.html). […] Spectral counts were used for relative quantification of MSP-MS results.

[2] = target: most rapidly cleaved internally quenched fluorescent TPP1 substrate (P3 to P4' sequence from the MSP-MS library, lysine-fluorophore in P1)

Molecule | effect on tri-amino peptidase activity (cleavage after third amino acid) [1] | number of detected peptide cleavages at other positions enriched in mucinous cysts (B6, B8, B9, B10) ([1]; acidic pH) | kcat/Km (cleavage of internally quenched fluorescent substrate, fluorescence assay, pH 4.5) [2]
C[C@H](N)C(=O)N[C@@H](C)C(=O)N[C@@H](Cc1ccccc1)C(=O)CCl [tripeptide chloromethylketone inhibitor, Ala-Ala-Phe-chloromethylketone] (H-Ala-Ala-Phe-CH2Cl) | almost completely ablated | – | –
CC(C)CC(=O)N[C@H](C(=O)N[C@H](C(=O)N[C@@H](CC(C)C)[C@@H](O)CC(=O)N[C@@H](C)C(=O)N[C@@H](CC(C)C)[C@@H](O)CC(=O)O)C(C)C)C(C)C [pepstatin] (Isovaleryl-VV[Sta]A[Sta]-OH) | not inhibited | decrease | –
recombinant tripeptidyl peptidase 1 (TPP1) (protein) LHLGVTPSVIRKRYNLTSQDVGSGTSNNSQACAQFLEQYFHDSDLAQFMRLFGGNFAHQASVARVVGQQGRGRAGIEASLDVQYLMSAGANISTWVYSSPGRHEGQEPFLQWLMLLSNESALPHVHTVSYGDDEDSLSSAYIQRVNTELMKAAARGLTLLFASGDSGAGCWSVSGRHQFRPTFPASSPYVTTVGGTSFQEPFLITNEIVDYISGGGFSNVFPRPSYQEEAVTKFLSSSPHLPPSSYFNASGRAYPDVAALSDGYWVVSNRVPIPWVSGTSASTPVFGGILSLINEHRILSGRPPLGFLNPRLYQQHGAGLFDVTRGCHESCLDEEVEGQGFCSGPGWDPVTGWGTPNFPALLKTLLNP | – | – | kcat/Km of 2.5 µmol^-1s^-1
